Measurements as given in the supplement of paper PMC10307832.

What was measured:
Assay in all cases: relative viability (nuclei count vs DMSO), 5 days (fraction); higher = more cells survive
Bicalutamide + OSI-027 = compound: CC(O)(CS(=O)(=O)c1ccc(F)cc1)C(=O)Nc1ccc(C#N)c(C(F)(F)F)c1 [Bicalutamide] + COc1cccc2cc(-c3nc([C@H]4CC[C@H](C(=O)O)CC4)n4ncnc(N)c34)[nH]c12 [OSI-027] (partner 0.5 µM)
How it was run: (§1)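 Each reported value is a median over duplicate plates. It expresses relative viability: treated-well nuclei count divided by vehicle-well nuclei count. Lung cancer cell lines in 1536-well plates were dosed by pin tool a day after seeding, alone with one drug or with a fixed anchor-drug dose plus five library-drug doses (not always all listed) in √10 steps, and nuclei were counted after 5 days.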

Bicalutamide + Lapatinib = compound: CC(O)(CS(=O)(=O)c1ccc(F)cc1)C(=O)Nc1ccc(C#N)c(C(F)(F)F)c1 [Bicalutamide] + CS(=O)(=O)CCNCc1ccc(-c2ccc3ncnc(Nc4ccc(OCc5cccc(F)c5)c(Cl)c4)c3c2)o1 [Lapatinib] (partner 2 µM)
How it was run: as §1

[1] = compound: CC(O)(CS(=O)(=O)c1ccc(F)cc1)C(=O)Nc1ccc(C#N)c(C(F)(F)F)c1 [Bicalutamide] + Nc1nc2[nH]cc(CCc3ccc(C(=O)N[C@@H](CCC(=O)O)C(=O)O)cc3)c2c(=O)[nH]1 [Pemetrexed] (partner 0.2 µM)
How it was run: as §1

[2] = compound: C(C(=O)C(=O)O)Br [Bromopyruvate] + COc1cc2c(Oc3ccc(NC(=O)C4(C(=O)Nc5ccc(F)cc5)CC4)cc3F)ccnc2cc1OCCCN1CCOCC1 [Foretinib] (partner 0.25 µM)
How it was run: as §1

Row | Cell Line | relative viability (Bicalutamide + OSI-027; first compound 0.08 µM) | relative viability (Bicalutamide + OSI-027; first compound 0.253 µM) | relative viability (Bicalutamide + OSI-027; first compound 0.8 µM) | relative viability (Bicalutamide + OSI-027; first compound 2.53 µM) | relative viability (Bicalutamide + Lapatinib; first compound 0.08 µM) | relative viability (Bicalutamide + Lapatinib; first compound 0.253 µM) | relative viability (Bicalutamide + Lapatinib; first compound 0.8 µM) | relative viability (Bicalutamide + Lapatinib; first compound 2.53 µM) | relative viability ([1]; first compound 0.08 µM) | relative viability ([1]; first compound 0.253 µM) | relative viability ([1]; first compound 0.8 µM) | relative viability ([1]; first compound 2.53 µM) | relative viability ([2]; first compound 1 µM) | relative viability ([2]; first compound 3.162 µM) | relative viability ([2]; first compound 10 µM) | relative viability ([2]; first compound 31.62 µM) | relative viability ([2]; first compound 100 µM)
1 | NCI-H1975 | 0.741 | 0.642 | 0.746 | 0.633 | 0.851 | 0.854 | 1.12 | 0.785 | 0.316 | 0.311 | 0.299 | 0.306 | 0.988 | 1.1 | 1.03 | 0.972 | 0.927
2 | NCI-H1993 | 0.479 | 0.594 | 0.523 | 0.511 | – | 0.897 | 0.732 | 0.854 | 0.66 | 0.669 | 0.557 | 0.597 | 0.84 | 0.817 | 0.939 | 0.764 | 0.774
3 | NCI-H2009 | 0.756 | 0.641 | 0.74 | 0.347 | 1.23 | 0.997 | 1.2 | 0.758 | 1.13 | 1.04 | 1.11 | 0.91 | 1.22 | 1.25 | 1.19 | 1.2 | 0.883
4 | NCI-H2023 | 0.44 | 0.338 | 0.427 | 0.271 | 0.727 | 0.866 | 1.21 | 0.648 | 0.267 | 0.175 | 0.279 | 0.223 | 0.716 | 0.776 | 0.813 | 0.985 | 0.806
5 | NCI-H2085 | 0.832 | 0.642 | 0.788 | 0.628 | 0.776 | 0.739 | 0.839 | 0.704 | 0.837 | 0.708 | 0.912 | 0.775 | 0.865 | 1.06 | 0.964 | 0.779 | 0.465
6 | NCI-H2087 | 0.598 | 0.512 | 0.579 | 0.572 | 1.24 | 1.01 | 1.15 | 1 | 0.684 | 0.662 | 0.695 | 0.613 | 1.13 | 1.17 | 0.97 | 1.12 | 0.595
7 | NCI-H2126 | 0.681 | 0.619 | 0.673 | 0.755 | 0.686 | 0.697 | 0.74 | 0.753 | 0.675 | 0.597 | 0.785 | 0.638 | 1.17 | 1.39 | 1.2 | 1.26 | 1.31
8 | NCI-H2170 | 0.765 | 0.636 | 0.668 | 0.705 | 0.286 | 0.271 | 0.268 | 0.24 | 0.251 | 0.262 | 0.281 | 0.25 | 0.961 | 1.01 | 1.07 | 0.995 | 0.966
9 | NCI-H2228 | 0.517 | 0.756 | 0.811 | 0.603 | 0.707 | 1.04 | 1.23 | 1.02 | 0.343 | 0.351 | 0.334 | 0.323 | 0.798 | 0.82 | 0.941 | 0.754 | 0.794
10 | NCI-H2347 | 0.395 | 0.327 | 0.515 | 0.427 | 1.11 | 0.935 | 0.989 | 0.784 | 0.463 | 0.444 | 0.453 | 0.445 | 0.925 | 1.01 | 1.22 | 0.721 | 0.982
11 | NCI-H2405 | 0.651 | 0.568 | 0.624 | 0.632 | 1.2 | 1.01 | 1.16 | 0.852 | 1.07 | 1.01 | 1.35 | 1.04 | 1.08 | 1.07 | 1.08 | 1.04 | 1.04
12 | NCI-H3122 | 0.951 | 0.905 | 1.25 | 0.881 | 0.983 | 0.962 | 1.04 | 1.04 | 0.202 | 0.193 | 0.197 | 0.199 | 0.985 | 1.04 | 1.01 | 0.915 | 0.917
13 | PC-3 [JPC-3] | 0.797 | 0.808 | 0.768 | 0.737 | 0.476 | 0.421 | 0.456 | 0.476 | 1.08 | 1.11 | 1.41 | 1.12 | 1.16 | 1.03 | 1.12 | 0.976 | 1.03
14 | PC-14 | 0.825 | 0.697 | 1.6 | 0.606 | 0.301 | 0.295 | 0.452 | 0.297 | 0.121 | 0.121 | 0.119 | 0.117 | 0.945 | 0.939 | 1.02 | 0.848 | 0.981
15 | RERF-LC-KJ | 0.679 | 0.56 | 0.563 | 0.543 | 0.904 | 0.862 | 1.07 | 0.705 | 0.471 | 0.457 | 0.517 | 0.492 | 0.843 | 0.918 | 0.962 | 0.818 | 0.869
16 | SK-LU-1 | 0.371 | 0.39 | 0.358 | 0.276 | 0.95 | 0.828 | 0.997 | 0.854 | 1.03 | 1.02 | 1.19 | 0.928 | 0.846 | 0.867 | 0.954 | 0.671 | 0.799
17 | SK-MES-1 | 0.601 | 0.607 | 0.665 | 0.491 | 0.48 | 0.456 | 0.472 | 0.46 | 1.04 | 0.867 | 0.981 | 0.832 | 0.964 | 0.962 | 0.938 | 0.75 | 1.17
18 | SW 1573 | 0.629 | – | 0.734 | 0.656 | 1.03 | 0.909 | 1.3 | 1.11 | 0.952 | 0.749 | 1.02 | 0.819 | 0.741 | 0.845 | 0.982 | 0.996 | 0.868
